Measured values: paper PMC7782499, “Progerinin, an optimized progerin-lamin A binding inhibitor, ameliorates premature senescence phenotypes of Hutchinson-Gilford progeria syndrome” (Communications Biology, 2021)
Values joined by “and” are separate entries in the source; they are usually repeats but may differ in a detail not shown here. Identical values can stand only once.

Target: T1, progerin (Homo sapiens, UniProt P02545)
T1 sequence (P02545 1-614 isoform P02545-6): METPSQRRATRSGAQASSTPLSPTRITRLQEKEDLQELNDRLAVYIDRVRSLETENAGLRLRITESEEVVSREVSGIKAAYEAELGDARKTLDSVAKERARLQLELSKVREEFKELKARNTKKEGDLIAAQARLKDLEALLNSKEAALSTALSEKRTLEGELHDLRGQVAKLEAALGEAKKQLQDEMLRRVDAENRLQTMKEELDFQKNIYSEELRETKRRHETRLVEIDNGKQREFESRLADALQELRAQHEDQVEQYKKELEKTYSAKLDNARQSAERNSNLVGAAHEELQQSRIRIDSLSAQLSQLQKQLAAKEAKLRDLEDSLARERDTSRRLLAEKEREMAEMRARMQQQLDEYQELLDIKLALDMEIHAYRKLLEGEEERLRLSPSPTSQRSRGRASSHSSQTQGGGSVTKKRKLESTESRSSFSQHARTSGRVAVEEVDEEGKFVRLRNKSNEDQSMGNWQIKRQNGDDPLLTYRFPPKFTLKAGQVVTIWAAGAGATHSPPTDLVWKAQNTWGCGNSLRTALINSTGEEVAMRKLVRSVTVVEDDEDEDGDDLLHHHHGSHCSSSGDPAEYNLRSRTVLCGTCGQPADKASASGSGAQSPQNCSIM
Assay: Progerin expression in HGPS patient cells (western blot, immunostaining)
Format: cell-based
Set-up: host or cells: HGPS patient fibroblasts
Conditions: for Progerin intensity after treatment with chemicals, Ave: average; for Progerin intensity after treatment with chemicals: single replicates
Description: Fig. 1 SLC-D011 ameliorates premature aging features of HGPS. A. HEK293 cells were transiently transfected with expression vector encoding wild-type lamin A (WT-LA), lamin A-C661A (LA-C661A), progerin, or progerin-C611A. LA-C661A or progerin-C611A with point mutation in CaaX motif was predicted to be lack of farnesylation, […] that of authentic WT-LA or progerin. GFP-conjugated empty expression vector was used as a negative control. Cells were visualized at 24 h after transfection. B Transient transfection of HEK293 cells with expression vector encoding progerin or progerin-G611A leads to reduced expression of H3K9me3 (n = 3 independent experiments; two-tailed Student’s t test). C. JH4 derivatives (JH010 and SLC-D011(D011)) inhibit lamin A and progerin interaction. For binding inhibition assay, bead-conjugated lamin A (GST-LA) was incubated with HEK293 cells, transiently transfected with GFP-progerin (PG), and treated with indicated chemicals. Actin was used as a loading control. PPT, co-precipitated materials with recombinant proteins; Sup supernatant. 5 μM of each chemical was used for binding assay. […] H3K9me3 reduction is a well-known marker for premature aged cells. Thus, H3K9me3 expression was evaluated by immunostaining. […] E SLC-D011 obviously suppresses progerin expression. […] F SLC-D011 reduces the expression of progerin in other HGPS cells (AG11513 and AG11498, Coriell Cell Repositories). […] G JH4, JH010, and SLC-D011 promote cell proliferation. Cell viability was determined by MTT assay after incubation with chemicals for 7 days (n = 3 independent experiments; two-tailed Student’s t test). H JH4, JH010, and SLC-D011 show similar activity for ameliorating nuclear deformation. After incubation with chemicals for 7 days, cells were stained with progerin and H3K9me3 antibodies (n = 3 independent experiment; two-tailed Student’s t test), **p < 0.001. Data are reported as mean ± SD. “Con” means Dimethyl sulfoxide (DMSO)-treated control. The data are normalized to DMSO-treated cells.
Protein was extracted from cells using a radioimmunoprecipitation assay (RIPA) buffer (50 mM Tris-Cl, pH 7.5, 150 mM NaCl, 1% NP-40, 0.1% SDS, and 10% sodium deoxycholate). Samples were separated by sodium dodecyl sulfate-polyacrylamide gel electrophoresis (SDS-PAGE) and transferred to polyvinylidene difluoride (PVDF) membranes. Blotted membranes were blocked with 3% skimmed milk in TBS-T buffer (20 mM Tris pH 7.6, 150 mM NaCl, and 0.05% Tween 20) for 1 h followed by incubation with specific primary antibodies. Horseradish peroxidase (HRP)-conjugated goat anti-mouse, goat anti-rabbit, and mouse anti-goat IgG antibodies (Pierce, Thermo Fisher Scientific, Inc., Rockford, IL, USA) were used as secondary antibodies. Peroxidase activity was detected by chemiluminescence using an ECL kit (Intron, Seoul, Korea) following the manufacturer’s instructions. Bands were quantified using Image J software (National Institute of Health, NIH).
Cells were cultured on coverslips, washed with PBS, fixed with 4% paraformaldehyde (PFA) for 30 min at RT, and then permeabilized with 0.2% Triton X-100 at RT for 5 min. After treatment with blocking solution (anti-Human antibody diluted 1:400 in PBS) for 1 h, cells were incubated with anti-lamin A/C (1:400), anti-progerin (1:100), Ki67 (1:200), and anti-H3K9me3 (1:200) in blocking buffer overnight at 4 °C. Finally, cells were incubated with fluorescein isothiocyanate and rhodamine-conjugated secondary antibodies at 4 °C for 7 h. Nuclei were stained with DAPI (4, 6-diamidino-2-phenylindole) at RT for 10 min. After cells were washed three times with PBS, coverslips were mounted with mounting solution (H-5501; Vector Laboratories, Burlingame, CA, USA). Immunofluorescence signal was detected with a fluorescence microscopy (Zeiss and Logos).
Fig. S7. Therapeutic effect of SLC-D011 at a low concentration. […]
AG11513; B) dose-dependently. […]

CC1(C)Oc2cc3oc(=O)ccc3cc2CC1OC(=O)C=Cc1cccnc1 (stereo not shown) [JH4]
Progerin intensity after treatment with chemicals, Ave (AG03198, 2μM): 15.1057 AU | Progerin intensity after treatment with chemicals (AG03198, 2μM): 13.2274 AU and 13.4377 AU and 18.652 AU | Progerin intensity after treatment with chemicals, Ave (AG03198, 5μM): 4.247 AU | Progerin intensity after treatment with chemicals (AG03198, 5μM): 1.2854 AU and 1.491 AU and 9.966 AU

CC1(C)Oc2cc3oc(=O)ccc3cc2C[C@@H]1OC/C=C/c1ccccc1 [SLC-D011]
Progerin intensity after treatment with SLC-D011, Ave (AG03198, 10nM, average (Fig S7C)): 7.117 AU | Progerin intensity after treatment with SLC-D011 (AG03198, 10nM, single replicates (Fig S7C)): 5.32 AU and 7.51 AU and 8.52 AU | Progerin intensity after treatment with SLC-D011, Ave (AG03198, 50nM, average (Fig S7C)): 3.183 AU | Progerin intensity after treatment with SLC-D011 (AG03198, 50nM, single replicates (Fig S7C)): 2.38 AU and 3.11 AU and 4.06 AU | Progerin intensity after treatment with SLC-D011, Ave (AG03198, 100nM, average (Fig S7C)): 1.91 AU | Progerin intensity after treatment with SLC-D011 (AG03198, 100nM, single replicates (Fig S7C)): 2.22 AU and 1.69 AU and 1.82 AU | Progerin intensity after treatment with SLC-D011, Ave (AG03198, 500nM, average (Fig S7C)): 1.503 AU | Progerin intensity after treatment with SLC-D011 (AG03198, 500nM, single replicates (Fig S7C)): 2.58 AU and 0.9 AU and 1.03 AU | Progerin intensity after treatment with SLC-D011, Ave (AG03198, 1μM, average (Fig S7C)): 0.68 AU | Progerin intensity after treatment with SLC-D011 (AG03198, 1μM, single replicates (Fig S7C)): 1.32 AU and 0.45 AU and 0.27 AU | Progerin intensity after treatment with chemicals, Ave (AG03198, 2μM): 1.893 AU | Progerin intensity after treatment with SLC-D011, Ave (AG03198, 2μM, average (Fig S7C)): 0.14 AU | Progerin intensity after treatment with chemicals (AG03198, 2μM): 1.798 AU and 1.397 AU and 2.484 AU | Progerin intensity after treatment with SLC-D011 (AG03198, 2μM, single replicates (Fig S7C)): 0 AU and 0.23 AU and 0.19 AU | Progerin intensity after treatment with chemicals, Ave (AG03198, 5μM): 0.1657 AU | Progerin intensity after treatment with SLC-D011, Ave (AG03198, 5μM, average (Fig S7C)): 0.02333 AU | Progerin intensity after treatment with chemicals (AG03198, 5μM): 0 AU and 0.123 AU and 0.3741 AU | Progerin intensity after treatment with SLC-D011 (AG03198, 5μM, single replicates (Fig S7C)): 0 AU (2×) and 0.07 AU | Progerin intensity after treatment with SLC-D011, Ave (AG11498, 10nM, average (Fig S7C)): 6.647 AU | Progerin intensity after treatment with SLC-D011 (AG11498, 10nM, single replicates (Fig S7C)): 6.56 AU and 6.24 AU and 7.14 AU | Progerin intensity after treatment with SLC-D011, Ave (AG11498, 50nM, average (Fig S7C)): 4.11 AU | Progerin intensity after treatment with SLC-D011 (AG11498, 50nM, single replicates (Fig S7C)): 2.38 AU and 3.5 AU and 6.45 AU | Progerin intensity after treatment with SLC-D011, Ave (AG11498, 100nM, average (Fig S7C)): 1.733 AU | Progerin intensity after treatment with SLC-D011 (AG11498, 100nM, single replicates (Fig S7C)): 0 AU and 1.5 AU and 3.7 AU | Progerin intensity after treatment with SLC-D011, Ave (AG11498, 500nM, average (Fig S7C)): 0.9 AU | Progerin intensity after treatment with SLC-D011 (AG11498, 500nM, single replicates (Fig S7C)): 0 AU and 0.6 AU and 2.1 AU | Progerin intensity after treatment with SLC-D011, Ave (AG11498, 1μM, average (Fig S7C)): 0.4533 AU | Progerin intensity after treatment with SLC-D011 (AG11498, 1μM, single replicates (Fig S7C)): 0 AU (2×) and 1.36 AU | Progerin intensity after treatment with SLC-D011, Ave (AG11498, 2μM, average (Fig S7C)): 0.3333 AU | Progerin intensity after treatment with SLC-D011 (AG11498, 2μM, single replicates (Fig S7C)): 0 AU (2×) and 1 AU | Progerin intensity after treatment with SLC-D011, Ave (AG11498, 5μM, average (Fig S7C)): 0.25 AU | Progerin intensity after treatment with SLC-D011 (AG11498, 5μM, single replicates (Fig S7C)): 0 AU (2×) and 0.75 AU | Progerin intensity after treatment with SLC-D011, Ave (AG11498, average (Fig S3H)): 1.892 AU | Progerin intensity after treatment with SLC-D011 (AG11498, single replicates (Fig S3H)): 5.217 AU and 0.1632 AU and 0.2958 AU | Progerin intensity after treatment with SLC-D011, Ave (AG11513, 10nM, average (Fig S7C)): 5.123 AU | Progerin intensity after treatment with SLC-D011 (AG11513, 10nM, single replicates (Fig S7C)): 2.96 AU and 6.48 AU and 5.93 AU | Progerin intensity after treatment with SLC-D011, Ave (AG11513, 50nM, average (Fig S7C)): 3.793 AU | Progerin intensity after treatment with SLC-D011 (AG11513, 50nM, single replicates (Fig S7C)): 3.06 AU and 4.3 AU and 4.02 AU | Progerin intensity after treatment with SLC-D011, Ave (AG11513, 100nM, average (Fig S7C)): 2.487 AU | Progerin intensity after treatment with SLC-D011 (AG11513, 100nM, single replicates (Fig S7C)): 2.07 AU and 2.27 AU and 3.12 AU | Progerin intensity after treatment with SLC-D011, Ave (AG11513, 500nM, average (Fig S7C)): 1.19 AU | Progerin intensity after treatment with SLC-D011 (AG11513, 500nM, single replicates (Fig S7C)): 0.81 AU and 1.08 AU and 1.68 AU | Progerin intensity after treatment with SLC-D011, Ave (AG11513, 1μM, average (Fig S7C)): 0.59 AU | Progerin intensity after treatment with SLC-D011 (AG11513, 1μM, single replicates (Fig S7C)): 0.55 AU and 0.6 AU and 0.62 AU | Progerin intensity after treatment with SLC-D011, Ave (AG11513, 2μM, average (Fig S7C)): 0.2167 AU | Progerin intensity after treatment with SLC-D011 (AG11513, 2μM, single replicates (Fig S7C)): 0.27 AU and 0.22 AU and 0.16 AU | Progerin intensity after treatment with SLC-D011, Ave (AG11513, 5μM, average (Fig S7C)): 0.09 AU | Progerin intensity after treatment with SLC-D011 (AG11513, 5μM, single replicates (Fig S7C)): 0.2 AU and 0 AU and 0.07 AU | Progerin intensity after treatment with SLC-D011, Ave (AG11513, average (Fig S3H)): 1.455 AU | Progerin intensity after treatment with SLC-D011 (AG11513, single replicates (Fig S3H)): 1.494 AU and 1.1106 AU and 1.761 AU | Concentration enough for eliminating progerin (HGPS cells): 100 nM | Effect on progerin expression (HGPS cells): reduce progerin expression | Progerin intensity after treatment with SLC-D011, Ave (N9, average (Fig S3H)): 0 AU | Progerin intensity after treatment with SLC-D011 (N9, single replicates (Fig S3H)): 0 AU
